According to ChEMBL document CHEMBL1201862, “PubChem BioAssay data set” (2004):
Calls of active or inactive are those of the source.

What was measured:
[1] = Luminescence Cell-Based Dose-Confimation HTS to Identify Inhibitors of 5'UTR Stem-Loop Driven Alpha-Synuclein mRNA Translation in H4 Neuroglioblastoma Cells. [Related pubchem assays: 1827 (Project Summary), 1813 (Primary HTS)]; format: functional
[2] = non-specific 3'UTR reporter inhibition in Clone20-Shn3RL – cell-based, Renilla luciferase, cherry-picked, counter-screen for Shn3 inhibitor project, dose response (AID 624133); format: functional
Genome polyprotein = Genome polyprotein (dengue virus type 2, UniProt P29990); assay: flavivirus cap methylation enzyme inhibition – biochemical, confirmation dose response, primary screen (AID 588689); format: functional
Sequence of Genome polyprotein (P29990 2492-3391 limits assumed): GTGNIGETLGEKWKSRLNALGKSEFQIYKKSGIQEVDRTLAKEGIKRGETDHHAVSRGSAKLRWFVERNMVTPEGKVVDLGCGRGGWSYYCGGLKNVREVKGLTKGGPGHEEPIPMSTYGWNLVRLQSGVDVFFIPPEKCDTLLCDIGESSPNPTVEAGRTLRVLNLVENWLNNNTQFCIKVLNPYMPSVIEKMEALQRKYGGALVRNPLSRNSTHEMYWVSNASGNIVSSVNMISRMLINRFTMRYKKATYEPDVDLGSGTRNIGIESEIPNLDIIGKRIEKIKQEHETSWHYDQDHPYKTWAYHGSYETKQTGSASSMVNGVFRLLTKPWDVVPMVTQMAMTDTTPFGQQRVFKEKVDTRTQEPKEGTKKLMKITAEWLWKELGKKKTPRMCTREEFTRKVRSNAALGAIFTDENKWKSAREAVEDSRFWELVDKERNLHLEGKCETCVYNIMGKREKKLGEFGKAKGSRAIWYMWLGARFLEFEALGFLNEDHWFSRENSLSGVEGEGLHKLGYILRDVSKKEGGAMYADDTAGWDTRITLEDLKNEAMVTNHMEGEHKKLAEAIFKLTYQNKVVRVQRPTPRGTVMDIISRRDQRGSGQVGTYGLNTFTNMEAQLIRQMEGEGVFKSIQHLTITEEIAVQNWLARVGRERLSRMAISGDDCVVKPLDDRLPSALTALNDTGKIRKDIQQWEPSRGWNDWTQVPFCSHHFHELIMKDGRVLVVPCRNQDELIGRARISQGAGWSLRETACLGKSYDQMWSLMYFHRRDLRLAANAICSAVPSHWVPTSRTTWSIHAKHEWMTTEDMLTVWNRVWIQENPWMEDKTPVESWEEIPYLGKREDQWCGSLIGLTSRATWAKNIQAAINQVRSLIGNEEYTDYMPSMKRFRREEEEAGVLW

Protein RecA = target: T1, Protein RecA (Mycobacterium tuberculosis, UniProt P9WHJ3); assay: Fluorescence Cell-Free Homogeneous Dose Retest to Identify Inhibitors of RecA-Intein Splicing Activity. [Related pubchem assays (depositor defined):AID2097, AID2223, AID489010, AID492950]; format: functional
T1 sequence (P9WHJ3 whole entry): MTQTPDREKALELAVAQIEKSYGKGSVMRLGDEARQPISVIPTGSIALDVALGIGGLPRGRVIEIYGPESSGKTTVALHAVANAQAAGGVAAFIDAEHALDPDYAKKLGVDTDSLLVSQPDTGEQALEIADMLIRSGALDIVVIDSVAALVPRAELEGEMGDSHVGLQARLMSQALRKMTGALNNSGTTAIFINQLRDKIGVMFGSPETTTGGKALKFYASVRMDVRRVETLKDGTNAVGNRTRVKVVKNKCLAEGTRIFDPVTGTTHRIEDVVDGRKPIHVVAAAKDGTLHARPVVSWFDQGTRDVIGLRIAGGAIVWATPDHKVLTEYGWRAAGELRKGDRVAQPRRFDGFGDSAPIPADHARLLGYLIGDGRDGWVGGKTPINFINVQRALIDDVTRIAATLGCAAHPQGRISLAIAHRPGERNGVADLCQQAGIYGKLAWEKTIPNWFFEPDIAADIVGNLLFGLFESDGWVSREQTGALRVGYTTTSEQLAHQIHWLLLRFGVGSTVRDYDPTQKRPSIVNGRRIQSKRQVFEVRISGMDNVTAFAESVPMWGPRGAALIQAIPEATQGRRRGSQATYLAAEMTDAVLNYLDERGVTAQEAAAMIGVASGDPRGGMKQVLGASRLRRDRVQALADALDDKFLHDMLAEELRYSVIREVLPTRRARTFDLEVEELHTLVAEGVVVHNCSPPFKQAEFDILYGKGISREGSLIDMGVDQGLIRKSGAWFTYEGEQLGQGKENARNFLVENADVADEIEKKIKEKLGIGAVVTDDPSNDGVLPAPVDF

[3] = target: T2, Replicative DNA helicase DnaB (Mycobacterium tuberculosis, UniProt P9WMR3); assay: DnaB intein splicing inhibitors, dose response, biochemical, cell-free fluorescence (AID 449749); format: functional
T2 sequence (P9WMR3 whole entry): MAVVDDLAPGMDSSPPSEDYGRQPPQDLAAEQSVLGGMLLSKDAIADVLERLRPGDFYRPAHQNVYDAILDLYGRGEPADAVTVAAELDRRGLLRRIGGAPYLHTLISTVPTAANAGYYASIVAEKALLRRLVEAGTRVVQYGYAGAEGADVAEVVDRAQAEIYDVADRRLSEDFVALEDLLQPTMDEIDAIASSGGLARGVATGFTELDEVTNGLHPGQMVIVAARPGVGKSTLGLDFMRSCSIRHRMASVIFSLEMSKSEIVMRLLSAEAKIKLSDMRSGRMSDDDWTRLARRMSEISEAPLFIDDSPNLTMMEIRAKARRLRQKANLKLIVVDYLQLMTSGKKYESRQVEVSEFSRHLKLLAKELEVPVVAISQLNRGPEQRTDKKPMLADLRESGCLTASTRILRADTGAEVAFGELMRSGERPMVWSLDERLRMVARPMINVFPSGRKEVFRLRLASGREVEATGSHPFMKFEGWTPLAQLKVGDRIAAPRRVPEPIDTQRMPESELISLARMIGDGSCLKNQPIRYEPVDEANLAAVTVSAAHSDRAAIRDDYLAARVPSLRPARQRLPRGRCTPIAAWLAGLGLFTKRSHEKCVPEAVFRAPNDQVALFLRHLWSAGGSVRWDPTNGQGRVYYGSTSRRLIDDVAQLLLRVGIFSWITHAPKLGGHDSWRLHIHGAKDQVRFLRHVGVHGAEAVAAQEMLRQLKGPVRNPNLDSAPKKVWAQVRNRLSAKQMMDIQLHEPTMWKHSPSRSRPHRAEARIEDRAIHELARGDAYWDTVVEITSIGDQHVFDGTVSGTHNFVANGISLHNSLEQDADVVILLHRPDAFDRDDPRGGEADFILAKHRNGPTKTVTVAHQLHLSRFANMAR

[4] = loss of viability in HepG2 cells – cell-based, CellTiter-Glo, cherry-picked, cytotoxicity control for Shn3 inhibitor project, dose response (AID 624134); format: functional
[5] = reduction of Shn3 3'UTR-driven luciferase in osteoblasts – cell-based, Clone20 osteoblasts, firefly luciferase, cherry-picked, dose response (AID 624132); format: functional;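 also: firefly luciferase luminescence from reporter carrying the Shn3 3'UTR in osteoblasts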
[6] = target: Potassium voltage-gated channel subfamily KQT member 2 (Rattus norvegicus, UniProt O88943, W236L); assay: potentiation of rat KCNQ2 current – cell-based, automated electrophysiology, mechanism study for KCNQ2 potentiator project, dose response (AID 2603); format: functional
Sequence of Potassium voltage-gated channel subfamily KQT member 2 (O88943 whole entry W236L, the tested form may be a part): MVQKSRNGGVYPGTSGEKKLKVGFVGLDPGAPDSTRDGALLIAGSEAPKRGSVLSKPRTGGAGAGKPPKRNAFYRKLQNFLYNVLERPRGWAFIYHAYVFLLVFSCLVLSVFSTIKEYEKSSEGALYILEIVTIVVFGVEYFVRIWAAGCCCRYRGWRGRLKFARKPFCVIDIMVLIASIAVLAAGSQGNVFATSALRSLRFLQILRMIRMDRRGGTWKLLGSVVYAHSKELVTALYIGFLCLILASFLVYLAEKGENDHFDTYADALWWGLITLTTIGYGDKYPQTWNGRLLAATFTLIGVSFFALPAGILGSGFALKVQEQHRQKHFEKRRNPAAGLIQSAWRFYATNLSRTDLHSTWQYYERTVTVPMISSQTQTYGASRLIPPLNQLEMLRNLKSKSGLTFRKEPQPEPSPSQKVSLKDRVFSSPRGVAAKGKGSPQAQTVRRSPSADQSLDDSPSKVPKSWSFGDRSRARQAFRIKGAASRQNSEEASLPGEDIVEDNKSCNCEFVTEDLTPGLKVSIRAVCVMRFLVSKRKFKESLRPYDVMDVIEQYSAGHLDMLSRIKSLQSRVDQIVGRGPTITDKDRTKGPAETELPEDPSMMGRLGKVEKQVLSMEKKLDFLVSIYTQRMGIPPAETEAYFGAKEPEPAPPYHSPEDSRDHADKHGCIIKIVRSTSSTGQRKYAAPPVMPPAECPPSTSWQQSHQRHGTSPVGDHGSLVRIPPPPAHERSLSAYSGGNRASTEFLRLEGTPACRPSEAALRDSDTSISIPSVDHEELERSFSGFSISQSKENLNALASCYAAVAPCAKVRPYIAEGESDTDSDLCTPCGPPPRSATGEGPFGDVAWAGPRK

[7] = target: T3, Hepatocyte nuclear factor 4-alpha (Homo sapiens, UniProt P41235); format: functional, cell-based;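 also: biochemical luminescence-based dose-response counterscreen measuring inhibition of HNF4 dimerization, run alongside a screen for blockers of ABHD5–perilipin-5 interaction; split luciferase complementation of HNF4 fusion proteins in cell lysate measuring dimerization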
T3 sequence (P41235 whole entry): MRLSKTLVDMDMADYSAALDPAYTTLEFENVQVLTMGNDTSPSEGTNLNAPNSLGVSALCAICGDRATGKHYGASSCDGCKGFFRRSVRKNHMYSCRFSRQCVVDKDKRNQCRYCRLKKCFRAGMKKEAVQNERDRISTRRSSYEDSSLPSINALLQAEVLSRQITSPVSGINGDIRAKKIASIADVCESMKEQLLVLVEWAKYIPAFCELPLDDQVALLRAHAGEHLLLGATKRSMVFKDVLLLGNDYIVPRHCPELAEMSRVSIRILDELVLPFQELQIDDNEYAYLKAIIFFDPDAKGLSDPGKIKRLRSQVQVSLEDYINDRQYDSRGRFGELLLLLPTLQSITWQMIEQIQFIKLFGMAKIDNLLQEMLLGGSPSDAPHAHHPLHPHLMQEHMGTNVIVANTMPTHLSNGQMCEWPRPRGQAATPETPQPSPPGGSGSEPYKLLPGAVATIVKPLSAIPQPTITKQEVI

Vero = assay: viability of Vero cells under compound – cytotoxicity control for flavivirus capping enzyme inhibitors (AID 588742); format: functional; conditions: Chlorocebus sabaeus
Wee1-like protein kinase = Wee1-like protein kinase (Homo sapiens, UniProt P30291); assay: Dose Response Cell-based Assay for Inhibitors of Wee1 Degradation. [Related pubchem assays: 1410, 1321 ]; format: functional
Sequence of Wee1-like protein kinase (P30291 whole entry): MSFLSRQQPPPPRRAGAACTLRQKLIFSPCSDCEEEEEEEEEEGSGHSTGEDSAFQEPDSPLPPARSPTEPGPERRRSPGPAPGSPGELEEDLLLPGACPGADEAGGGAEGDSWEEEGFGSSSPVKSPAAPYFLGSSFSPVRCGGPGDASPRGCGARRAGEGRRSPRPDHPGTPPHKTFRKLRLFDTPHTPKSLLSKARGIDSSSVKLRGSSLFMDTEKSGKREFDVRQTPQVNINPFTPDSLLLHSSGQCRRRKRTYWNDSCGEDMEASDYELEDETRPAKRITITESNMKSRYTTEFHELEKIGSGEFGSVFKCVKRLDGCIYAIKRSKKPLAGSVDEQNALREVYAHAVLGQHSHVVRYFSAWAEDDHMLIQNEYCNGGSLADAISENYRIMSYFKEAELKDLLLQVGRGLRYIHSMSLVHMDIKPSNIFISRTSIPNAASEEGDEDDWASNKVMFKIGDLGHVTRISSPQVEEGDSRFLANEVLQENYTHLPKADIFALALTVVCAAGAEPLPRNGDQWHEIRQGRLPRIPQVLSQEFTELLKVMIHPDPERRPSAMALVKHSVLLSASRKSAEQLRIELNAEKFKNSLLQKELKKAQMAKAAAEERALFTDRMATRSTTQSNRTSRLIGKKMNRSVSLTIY

[8] = target: G2/mitotic-specific cyclin-B1 (Homo sapiens, UniProt P14635); assay: Counterscreen assay for inhibitors of Wee1 degradation: dose response cell-based assay to identify inhibitors of cyclin B degradation. [Related pubchem assays: 1410, 1321 ]; format: functional
Sequence of G2/mitotic-specific cyclin-B1 (P14635 whole entry): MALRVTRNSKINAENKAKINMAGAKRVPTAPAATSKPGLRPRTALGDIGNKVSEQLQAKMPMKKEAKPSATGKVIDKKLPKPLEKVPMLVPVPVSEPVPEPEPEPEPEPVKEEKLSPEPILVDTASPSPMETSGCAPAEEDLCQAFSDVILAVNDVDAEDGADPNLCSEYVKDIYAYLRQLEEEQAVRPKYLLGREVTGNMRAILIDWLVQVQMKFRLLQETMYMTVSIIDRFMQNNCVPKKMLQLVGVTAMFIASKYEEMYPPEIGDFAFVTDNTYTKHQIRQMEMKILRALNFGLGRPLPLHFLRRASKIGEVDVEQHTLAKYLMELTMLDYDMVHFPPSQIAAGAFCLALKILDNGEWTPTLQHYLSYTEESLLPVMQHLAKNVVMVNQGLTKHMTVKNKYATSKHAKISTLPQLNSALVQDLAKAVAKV

[9] = HEK-293T viability loss after treatment – luminescence, T-cell screen hits, cytotoxicity control for TCR NF-kB inhibitor project, dose response (AID 489026); format: functional, cell-based;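 also: cells exposed to compound about 14 hours before the viability readout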
[10] = target: T4, Neuropeptide Y receptor type 2 (Homo sapiens, UniProt P49146); format: functional, cell-based;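 also: HEK293 cells expressing the receptor and a CNG channel; stimulus was NPY near EC95 followed by isoproterenol to raise cAMP; antagonist potency measured as restoring cAMP signal that NPY suppresses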
T4 sequence (P49146 whole entry): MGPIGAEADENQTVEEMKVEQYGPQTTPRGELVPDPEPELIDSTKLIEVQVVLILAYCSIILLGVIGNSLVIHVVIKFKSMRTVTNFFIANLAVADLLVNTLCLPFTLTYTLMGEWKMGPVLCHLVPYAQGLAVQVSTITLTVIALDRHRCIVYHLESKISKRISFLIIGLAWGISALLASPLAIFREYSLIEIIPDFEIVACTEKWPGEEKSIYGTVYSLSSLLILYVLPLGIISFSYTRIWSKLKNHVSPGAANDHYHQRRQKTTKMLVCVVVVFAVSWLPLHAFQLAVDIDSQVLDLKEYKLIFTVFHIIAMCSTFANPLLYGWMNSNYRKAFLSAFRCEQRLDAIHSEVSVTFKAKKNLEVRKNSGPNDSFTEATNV

[11] = target: T5, Neuropeptide Y receptor type 1 (Homo sapiens, UniProt P25929); format: functional;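 also: HEK293 cells with a CNG channel challenged with NPY then isoproterenol; potency as antagonist that reverses NPY suppression of cAMP signal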
T5 sequence (P25929 whole entry): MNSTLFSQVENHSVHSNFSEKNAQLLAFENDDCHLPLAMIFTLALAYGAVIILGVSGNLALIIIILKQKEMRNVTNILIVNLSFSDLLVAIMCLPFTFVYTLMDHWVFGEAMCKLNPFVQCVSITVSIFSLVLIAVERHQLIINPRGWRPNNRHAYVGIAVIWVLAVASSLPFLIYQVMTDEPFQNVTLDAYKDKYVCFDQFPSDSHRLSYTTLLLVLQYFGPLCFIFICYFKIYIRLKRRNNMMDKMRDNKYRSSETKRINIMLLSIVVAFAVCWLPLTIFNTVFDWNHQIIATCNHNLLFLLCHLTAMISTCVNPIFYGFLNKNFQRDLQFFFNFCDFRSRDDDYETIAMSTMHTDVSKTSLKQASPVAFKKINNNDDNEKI

## CN(C)c1nc(N)nc(CSc2nnnn2-c2ccc(Cl)cc2)n1
[1]
  EC50: > 100 µM (not active)

## CSc1nnc(NC(=O)c2nc(S(=O)(=O)Cc3ccc(C)cc3)ncc2Cl)s1
[2]
  AC50: 11.1 µM (active)
Genome polyprotein
  IC50: 40.5 µM (active)
Protein RecA
  EC50: 3.26 µM (active)
[3]
  AC50: 5.31 µM (active)
[4]
  AC50: > 70 µM (inactive)
[5]
  AC50: 3.18 µM (active)
[6]
  EC50: 34.9 µM (active)
[7]
  IC50: 4.93 µM (active)
Vero
  CC50: 30.9 µM (active)

## Cc1csc2sc(-c3ccnc(SCC(=O)NCc4ccccc4)n3)c(C)c12
Wee1-like protein kinase
  EC50: > 49.7 µM (not active)
[8]
  EC50: > 49.7 µM (not active)
[9]
  IC50: > 80 µM (inactive)

## O=C(N/N=C/c1ccco1)c1ccccc1OCc1ccc(Br)cc1
[10]
  IC50: 9.08 µM (active)
[11]
  IC50: 5.34 µM (active)
